Measured values from patent US9023845B2, “Compositions and methods for treating lysosomal disorders” (priority 2007, dated 2015).
Entries after “also recorded” stand apart in the source; their conditions may differ.

Columns and labels:
[1] = test system: Gaucher and/or Fabry B-cell lines; test: Effect on cultured cell GSLs (TLC, orcinol detection); assay type: cell-based; conditions: 3 days, GSL fractions by TLC/orcinol
[2] = test system: Fabry mice; conditions: mouse, in vivo
[3] = test system: Fabry mice; conditions: mouse, in vivo, ip

CCOC/C=C/c1ccc(-c2nc(-c3ccc(NC(C)C)cc3)c(-c3ccc(NC(C)C)cc3)[nH]2)cc1 [Formula 2]
Gb3 levels ([1]; 4 μM): decrease | LacCer and GlcCer levels ([1]; 4 μM): increased | complex GSL levels ([1]; 8 μM): significant reduced | heart Gb3 staining (VT1) [2]: effective in reducing heart Gb3 staining | liver Gb3 staining (VT1) [2]: essentially no residual staining for Gb3 within the liver; also recorded: considerably less than in the control group; also recorded: more effective in reducing liver Gb3 staining as compared to mice treated with cyclosporine; also recorded: essentially removed Gb3 from the liver Kupffer cells | VT1 staining [3]: decreased VT1 staining | levels of GlcCer and/or LacCer [3]: increased levels | levels of complex GSLs such as Gb3 [3]: lower levels
